Test results from US10149881B2, “Method for treating inflammatory, allergic or asthma diseases, containing paprika extracts” (priority 2010, dated 2018).

Assays:
Format in all cases: in vivo, mice
IgG1 = test: Analysis of IgG1, OVA asthma mouse model; conditions: blood; FIG. 11, FIG. 14
Protocol: (§1) Meanwhile, immunoglobulin IgG2a is produced by activation of Th1 cells, and the activity of Th1 cells reduces the level of IgG1 which is increased by the activity of Th2 cells. Thus, IgG1 and IgG2a were analyzed.

[1] = system: infiltration of immune cells; test: Immune cell infiltration, comparison with luteolin in asthma model; conditions: FIG. 12
Protocol: In order to examine whether the asthma inhibitory effect of the paprika extract of the present invention is attributable to a combination of components or a specific component alone, the following test was carried out. Specifically, the immune cell infiltration of luteolin was examined.

IgG2a = test: Analysis of IgG2a, OVA asthma mouse model; conditions: FIG. 14
Protocol: as §1

immunoglobulin-E (IgE) = test: Measurement of blood immunoglobulin E (IgE) level, OVA asthma mouse model; conditions: FIG. 13
Protocol: When asthma in mice is induced using OVA, the immunoglobulin-E (IgE) among the blood antibody levels of the mice increases in proportion to the severity of asthma. Based on this principle, the paprika extract obtained according to the method of Example 1 was named “sample SP526”, and the blood immunoglobulin-E (IgE) level of the mice was measured. Also, the level of immunoglobulin-E (IgE) was measured.

Compound: O=c1cc(-c2ccc(O)c(O)c2)oc2cc(O)cc(O)c12 [luteolin]
- expression of IgG1 (IgG1): not inhibited
- infiltration of immune cells [1]: inhibited the infiltration of immune cells
- IgG2a, index of the activation of Th1 cells (IgG2a): produced IgG2a
- effect on blood immunoglobulin-E levels (immunoglobulin-E (IgE)): did not reduce
